# Data: patent US20140120232A1, “ACID TASTE/ACID SMELL-REDUCING AGENT” (T. HASEGAWA CO., LTD., priority 2011, published 2014)
# Experiment: Sensory evaluation of Vermont drink containing the agent
# Settings: ten panels
# Method: Water was added to a mixture of 10 g of apple-cider vinegar (acetic acid: 4.8%), 3 g of honey, 7 g of fructose-glucose liquid sugar mixed with sugar, 0.02 g of citric acid, 0.002 g of trisodium citrate, and 0.1 g of a Vermont flavor (manufactured by T. Hasegawa Co., Ltd.) to give a total amount of 100 mL. To the resulting mixture was added (Z,Z)-4,7-tridecadienal as the acid taste and/or acid smell-reducing agent of the present invention in concentrations shown in the following Table 1 to give Vermont drinks containing the agent.
# Sensory evaluation of each drink was carried out by ten panels. […] The piercing aroma characteristic to aldehydes is a characteristic aroma common to every aldehyde and refers to an irritant off-smell giving an image of deteriorated oils and fats, soap, metals, Houttuynia cordata, etc. The judgment of smell was performed by comparing the effects at different concentrations of the acid taste and/or acid smell-reducing agent, and a concentration giving the highest acid taste/acid smell quality was selected. […]
structure (smiles),measurement,setting,value
"CCCCC/C=C\C/C=C/CCC=O [(E,Z)-4,7-tridecadienal]","A: number of panels, acid taste/acid smell extreme and cause irritation",0.005 ppt,10
same,"B: number of panels, acid taste/acid smell slightly strong and slightly cause irritation",0.005 ppt,0
same,"C: number of panels, acid taste/acid smell slightly unpleasant",0.005 ppt,0
same,Flavor judgment: number of panels who judged acid taste/acid smell quality the highest,0.005 ppt,0
same,"N: number of panels, irritation of acid reduced to give a mild acid taste",0.005 ppt,0
same,"X: number of panels, acid taste reduced but piercing odor characteristic to aldehydes unpleasant",0.005 ppt,0
same,"A: number of panels, acid taste/acid smell extreme and cause irritation",0.02 ppt,10
same,"B: number of panels, acid taste/acid smell slightly strong and slightly cause irritation",0.02 ppt,0
same,"C: number of panels, acid taste/acid smell slightly unpleasant",0.02 ppt,0
same,Flavor judgment: number of panels who judged acid taste/acid smell quality the highest,0.02 ppt,0
same,"N: number of panels, irritation of acid reduced to give a mild acid taste",0.02 ppt,0
same,"X: number of panels, acid taste reduced but piercing odor characteristic to aldehydes unpleasant",0.02 ppt,0
same,"A: number of panels, acid taste/acid smell extreme and cause irritation",0.1 ppt,10
same,"B: number of panels, acid taste/acid smell slightly strong and slightly cause irritation",0.1 ppt,0
same,"C: number of panels, acid taste/acid smell slightly unpleasant",0.1 ppt,0
same,Flavor judgment: number of panels who judged acid taste/acid smell quality the highest,0.1 ppt,0
same,"N: number of panels, irritation of acid reduced to give a mild acid taste",0.1 ppt,0
same,"X: number of panels, acid taste reduced but piercing odor characteristic to aldehydes unpleasant",0.1 ppt,0
same,"A: number of panels, acid taste/acid smell extreme and cause irritation",0.2 ppt,8
same,"B: number of panels, acid taste/acid smell slightly strong and slightly cause irritation",0.2 ppt,2
same,"C: number of panels, acid taste/acid smell slightly unpleasant",0.2 ppt,0
same,Flavor judgment: number of panels who judged acid taste/acid smell quality the highest,0.2 ppt,0
same,"N: number of panels, irritation of acid reduced to give a mild acid taste",0.2 ppt,0
same,"X: number of panels, acid taste reduced but piercing odor characteristic to aldehydes unpleasant",0.2 ppt,0
same,"A: number of panels, acid taste/acid smell extreme and cause irritation",0.5 ppt,6
same,"B: number of panels, acid taste/acid smell slightly strong and slightly cause irritation",0.5 ppt,3
same,"C: number of panels, acid taste/acid smell slightly unpleasant",0.5 ppt,1
same,Flavor judgment: number of panels who judged acid taste/acid smell quality the highest,0.5 ppt,0
same,"N: number of panels, irritation of acid reduced to give a mild acid taste",0.5 ppt,0
same,"X: number of panels, acid taste reduced but piercing odor characteristic to aldehydes unpleasant",0.5 ppt,0
same,"A: number of panels, acid taste/acid smell extreme and cause irritation",1 ppb,0
same,"B: number of panels, acid taste/acid smell slightly strong and slightly cause irritation",1 ppb,0
same,"C: number of panels, acid taste/acid smell slightly unpleasant",1 ppb,2
same,Flavor judgment: number of panels who judged acid taste/acid smell quality the highest,1 ppb,0
same,"N: number of panels, irritation of acid reduced to give a mild acid taste",1 ppb,4
same,"X: number of panels, acid taste reduced but piercing odor characteristic to aldehydes unpleasant",1 ppb,4
same,"A: number of panels, acid taste/acid smell extreme and cause irritation",1 ppt,0
same,"B: number of panels, acid taste/acid smell slightly strong and slightly cause irritation",1 ppt,4
same,"C: number of panels, acid taste/acid smell slightly unpleasant",1 ppt,5
same,Flavor judgment: number of panels who judged acid taste/acid smell quality the highest,1 ppt,0
same,"N: number of panels, irritation of acid reduced to give a mild acid taste",1 ppt,1
same,"X: number of panels, acid taste reduced but piercing odor characteristic to aldehydes unpleasant",1 ppt,0
same,"A: number of panels, acid taste/acid smell extreme and cause irritation",5 ppt,0
same,"B: number of panels, acid taste/acid smell slightly strong and slightly cause irritation",5 ppt,1
same,"C: number of panels, acid taste/acid smell slightly unpleasant",5 ppt,3
same,Flavor judgment: number of panels who judged acid taste/acid smell quality the highest,5 ppt,4
same,"N: number of panels, irritation of acid reduced to give a mild acid taste",5 ppt,6
same,"X: number of panels, acid taste reduced but piercing odor characteristic to aldehydes unpleasant",5 ppt,0
same,"A: number of panels, acid taste/acid smell extreme and cause irritation",10 ppb,0
same,"B: number of panels, acid taste/acid smell slightly strong and slightly cause irritation",10 ppb,0
same,"C: number of panels, acid taste/acid smell slightly unpleasant",10 ppb,2
same,Flavor judgment: number of panels who judged acid taste/acid smell quality the highest,10 ppb,0
same,"N: number of panels, irritation of acid reduced to give a mild acid taste",10 ppb,4
same,"X: number of panels, acid taste reduced but piercing odor characteristic to aldehydes unpleasant",10 ppb,4
same,"A: number of panels, acid taste/acid smell extreme and cause irritation",20 ppt,0
same,"B: number of panels, acid taste/acid smell slightly strong and slightly cause irritation",20 ppt,0
same,"C: number of panels, acid taste/acid smell slightly unpleasant",20 ppt,2
same,Flavor judgment: number of panels who judged acid taste/acid smell quality the highest,20 ppt,3
same,"N: number of panels, irritation of acid reduced to give a mild acid taste",20 ppt,8
same,"X: number of panels, acid taste reduced but piercing odor characteristic to aldehydes unpleasant",20 ppt,0
same,"A: number of panels, acid taste/acid smell extreme and cause irritation",50 ppb,0
same,"B: number of panels, acid taste/acid smell slightly strong and slightly cause irritation",50 ppb,0
same,"C: number of panels, acid taste/acid smell slightly unpleasant",50 ppb,0
same,Flavor judgment: number of panels who judged acid taste/acid smell quality the highest,50 ppb,0
same,"N: number of panels, irritation of acid reduced to give a mild acid taste",50 ppb,2
same,"X: number of panels, acid taste reduced but piercing odor characteristic to aldehydes unpleasant",50 ppb,8
same,"A: number of panels, acid taste/acid smell extreme and cause irritation",100 ppt,0
same,"B: number of panels, acid taste/acid smell slightly strong and slightly cause irritation",100 ppt,1
same,"C: number of panels, acid taste/acid smell slightly unpleasant",100 ppt,2
same,Flavor judgment: number of panels who judged acid taste/acid smell quality the highest,100 ppt,3
same,"N: number of panels, irritation of acid reduced to give a mild acid taste",100 ppt,7
same,"X: number of panels, acid taste reduced but piercing odor characteristic to aldehydes unpleasant",100 ppt,0
same,"A: number of panels, acid taste/acid smell extreme and cause irritation",500 ppt,0
same,"B: number of panels, acid taste/acid smell slightly strong and slightly cause irritation",500 ppt,1
same,"C: number of panels, acid taste/acid smell slightly unpleasant",500 ppt,3
same,Flavor judgment: number of panels who judged acid taste/acid smell quality the highest,500 ppt,0
same,"N: number of panels, irritation of acid reduced to give a mild acid taste",500 ppt,4
same,"X: number of panels, acid taste reduced but piercing odor characteristic to aldehydes unpleasant",500 ppt,2
"CCCCC/C=C/C/C=C\C=C\C=O [(E,Z,E)-2,4,7-tridecatrienal]","A: number of panels, acid taste/acid smell extreme and cause irritation",0.005 ppt,10
same,"B: number of panels, acid taste/acid smell slightly strong and slightly cause irritation",0.005 ppt,0
same,"C: number of panels, acid taste/acid smell slightly unpleasant",0.005 ppt,0
same,Flavor judgment: number of panels who judged acid taste/acid smell quality the highest,0.005 ppt,0
same,"N: number of panels, irritation of acid reduced to give a mild acid taste",0.005 ppt,0
same,"X: number of panels, acid taste reduced but piercing odor characteristic to aldehydes unpleasant",0.005 ppt,0
same,"A: number of panels, acid taste/acid smell extreme and cause irritation",0.02 ppt,10
same,"B: number of panels, acid taste/acid smell slightly strong and slightly cause irritation",0.02 ppt,0
same,"C: number of panels, acid taste/acid smell slightly unpleasant",0.02 ppt,0
same,Flavor judgment: number of panels who judged acid taste/acid smell quality the highest,0.02 ppt,0
same,"N: number of panels, irritation of acid reduced to give a mild acid taste",0.02 ppt,0
same,"X: number of panels, acid taste reduced but piercing odor characteristic to aldehydes unpleasant",0.02 ppt,0
same,"A: number of panels, acid taste/acid smell extreme and cause irritation",0.1 ppt,10
same,"B: number of panels, acid taste/acid smell slightly strong and slightly cause irritation",0.1 ppt,0
same,"C: number of panels, acid taste/acid smell slightly unpleasant",0.1 ppt,0
same,Flavor judgment: number of panels who judged acid taste/acid smell quality the highest,0.1 ppt,0
same,"N: number of panels, irritation of acid reduced to give a mild acid taste",0.1 ppt,0
same,"X: number of panels, acid taste reduced but piercing odor characteristic to aldehydes unpleasant",0.1 ppt,0
same,"A: number of panels, acid taste/acid smell extreme and cause irritation",0.2 ppt,8
same,"B: number of panels, acid taste/acid smell slightly strong and slightly cause irritation",0.2 ppt,2
same,"C: number of panels, acid taste/acid smell slightly unpleasant",0.2 ppt,0
same,Flavor judgment: number of panels who judged acid taste/acid smell quality the highest,0.2 ppt,0
same,"N: number of panels, irritation of acid reduced to give a mild acid taste",0.2 ppt,0
same,"X: number of panels, acid taste reduced but piercing odor characteristic to aldehydes unpleasant",0.2 ppt,0
same,"A: number of panels, acid taste/acid smell extreme and cause irritation",0.5 ppt,6
same,"B: number of panels, acid taste/acid smell slightly strong and slightly cause irritation",0.5 ppt,2
same,"C: number of panels, acid taste/acid smell slightly unpleasant",0.5 ppt,2
same,Flavor judgment: number of panels who judged acid taste/acid smell quality the highest,0.5 ppt,0
same,"N: number of panels, irritation of acid reduced to give a mild acid taste",0.5 ppt,0
same,"X: number of panels, acid taste reduced but piercing odor characteristic to aldehydes unpleasant",0.5 ppt,0
same,"A: number of panels, acid taste/acid smell extreme and cause irritation",1 ppb,0
same,"B: number of panels, acid taste/acid smell slightly strong and slightly cause irritation",1 ppb,0
same,"C: number of panels, acid taste/acid smell slightly unpleasant",1 ppb,2
same,Flavor judgment: number of panels who judged acid taste/acid smell quality the highest,1 ppb,0
same,"N: number of panels, irritation of acid reduced to give a mild acid taste",1 ppb,4
same,"X: number of panels, acid taste reduced but piercing odor characteristic to aldehydes unpleasant",1 ppb,4
same,"A: number of panels, acid taste/acid smell extreme and cause irritation",1 ppt,0
same,"B: number of panels, acid taste/acid smell slightly strong and slightly cause irritation",1 ppt,6
same,"C: number of panels, acid taste/acid smell slightly unpleasant",1 ppt,3
same,Flavor judgment: number of panels who judged acid taste/acid smell quality the highest,1 ppt,0
same,"N: number of panels, irritation of acid reduced to give a mild acid taste",1 ppt,1
same,"X: number of panels, acid taste reduced but piercing odor characteristic to aldehydes unpleasant",1 ppt,0
same,"A: number of panels, acid taste/acid smell extreme and cause irritation",5 ppt,0
same,"B: number of panels, acid taste/acid smell slightly strong and slightly cause irritation",5 ppt,1
same,"C: number of panels, acid taste/acid smell slightly unpleasant",5 ppt,3
same,Flavor judgment: number of panels who judged acid taste/acid smell quality the highest,5 ppt,4
same,"N: number of panels, irritation of acid reduced to give a mild acid taste",5 ppt,6
same,"X: number of panels, acid taste reduced but piercing odor characteristic to aldehydes unpleasant",5 ppt,0
same,"A: number of panels, acid taste/acid smell extreme and cause irritation",10 ppb,0
same,"B: number of panels, acid taste/acid smell slightly strong and slightly cause irritation",10 ppb,0
same,"C: number of panels, acid taste/acid smell slightly unpleasant",10 ppb,1
same,Flavor judgment: number of panels who judged acid taste/acid smell quality the highest,10 ppb,0
same,"N: number of panels, irritation of acid reduced to give a mild acid taste",10 ppb,2
same,"X: number of panels, acid taste reduced but piercing odor characteristic to aldehydes unpleasant",10 ppb,7
same,"A: number of panels, acid taste/acid smell extreme and cause irritation",20 ppt,0
same,"B: number of panels, acid taste/acid smell slightly strong and slightly cause irritation",20 ppt,0
same,"C: number of panels, acid taste/acid smell slightly unpleasant",20 ppt,3
same,Flavor judgment: number of panels who judged acid taste/acid smell quality the highest,20 ppt,4
same,"N: number of panels, irritation of acid reduced to give a mild acid taste",20 ppt,7
same,"X: number of panels, acid taste reduced but piercing odor characteristic to aldehydes unpleasant",20 ppt,0
same,"A: number of panels, acid taste/acid smell extreme and cause irritation",50 ppb,0
same,"B: number of panels, acid taste/acid smell slightly strong and slightly cause irritation",50 ppb,0
same,"C: number of panels, acid taste/acid smell slightly unpleasant",50 ppb,0
same,Flavor judgment: number of panels who judged acid taste/acid smell quality the highest,50 ppb,0
same,"N: number of panels, irritation of acid reduced to give a mild acid taste",50 ppb,2
same,"X: number of panels, acid taste reduced but piercing odor characteristic to aldehydes unpleasant",50 ppb,8
same,"A: number of panels, acid taste/acid smell extreme and cause irritation",100 ppt,0
same,"B: number of panels, acid taste/acid smell slightly strong and slightly cause irritation",100 ppt,0
same,"C: number of panels, acid taste/acid smell slightly unpleasant",100 ppt,2
same,Flavor judgment: number of panels who judged acid taste/acid smell quality the highest,100 ppt,2
same,"N: number of panels, irritation of acid reduced to give a mild acid taste",100 ppt,8
same,"X: number of panels, acid taste reduced but piercing odor characteristic to aldehydes unpleasant",100 ppt,0
same,"A: number of panels, acid taste/acid smell extreme and cause irritation",500 ppt,0
same,"B: number of panels, acid taste/acid smell slightly strong and slightly cause irritation",500 ppt,0
same,"C: number of panels, acid taste/acid smell slightly unpleasant",500 ppt,3
same,Flavor judgment: number of panels who judged acid taste/acid smell quality the highest,500 ppt,0
same,"N: number of panels, irritation of acid reduced to give a mild acid taste",500 ppt,4
same,"X: number of panels, acid taste reduced but piercing odor characteristic to aldehydes unpleasant",500 ppt,3
